According to US7445765B2, “Radiopharmaceutical for diagnostic imaging containing a technetium-99m nitride heterocomplex” (Nihon Medi-Physics Co., Ltd., priority 2000, dated 2008):

What was measured:
[1] = Biodistribution of the 99mTc(N) heterocomplexes in rats (organ uptake, heart accumulation, heart/lung and heart/liver ratios); format: in vivo, female Sprague-Dawley rats
Procedure, shortened: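 Female Sprague-Dawley rats (200–250 g, n=3), ketamine/xylazine anaesthesia, got 300–370 kBq of each purified heterocomplex in pH 7.4 phosphate buffer (10% ethanol) via the jugular vein. They were killed at several post-injection times. Heart blood and washed, weighed organs were gamma-counted, taking whole blood as 6.5% of body weight.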

[2] = Measurement of Log k′ (partition ratio) by HPLC, PNP3 heterocomplexes; format: physicochemical; conditions: HPLC C18, methanol/phosphate buffer (0.02M, pH 7.4), 1.0 mL/min; extrapolated to 0% organic solvent
Protocol: For the various ^99mTc(N) heterocomplexes synthesized using PNP3 as a bisphosphinoamine compound in Example 1, Log k′ values were determined at various compositions of a mobile phase for HPLC. As the mobile phase, mixtures of methanol and phosphate buffer (0.02M, pH=7.4) were used at a flow rate of 1.0 mL/min. For each sample, the retention time was measured at a minimum of three different methanol concentrations in the mobile phase. The Log k′ values at 0% organic solvent (Log k′0) were extrapolated from the linear part of the curve Log k′=a+bC, where C is the methanol concentration, and Log k′ is Log (tR-to)/to wherein tR is HPLC retension time (min). The column void time (t0) was regarded as being equal to the elution time of pertechnetic acid.

[3] = Stability: ligand exchange reaction with cysteine or glutathione; format: physicochemical; conditions: phosphate buffer pH 7.4, 37° C., up to 2 hours, TLC
Protocol: The stability of the ^99mTc(N) heterocomplexes obtained using PNP3 as a bisphosphinoamine compound in Example 1 was confirmed by ligand exchange reaction with cysteine or glutathione.
250.0 μL of phosphate buffer solution (0.20 M, pH=7.4), 100 μL of water and 100 μL of each of the ^99mTc(N) heterocomplexes purified were mixed with 50 μL of each of cysteine solutions having different concentrations of 10 mM and 1.0 mM, and the resulting mixture was placed in a polypropylene test tube and incubated in a thermostat at 37° C. A blank solution was obtained by mixing an equal volume of water without addition of cysteine. Aliquots of the resulting solutions were withdrawn at 15 min, 30 min, 60 min and 2 hours after the start of the incubation, and analyzed by TLC. The same experiment as above was carried out except for using glutathione in place of cysteine. All the ^99mTc(N) heterocomplex samples were found stable against transchelation by cystein or glutathione.

Biodistribution in rats: Adrenal glands ([1]; 0 min post injection): 2.68 ± 0.44 % ID/g
Biodistribution in rats: Blood ([1]; 0 min post injection): 0.55 ± 0.32 % ID/g
Biodistribution in rats: Brain ([1]; 0 min post injection): 0.23 ± 0.04 % ID/g
Biodistribution in rats: Heart ([1]; 0 min post injection): 3.57 ± 0.14 % ID/g
Biodistribution in rats: Intestine ([1]; 0 min post injection): 2.43 ± 0.49 % ID/g
Biodistribution in rats: Kidneys ([1]; 0 min post injection): 10.40 ± 2.16 % ID/g
Biodistribution in rats: Liver ([1]; 0 min post injection): 1.46 ± 0.05 % ID/g
Biodistribution in rats: Lungs ([1]; 0 min post injection): 1.54 ± 0.03 % ID/g
Biodistribution in rats: Muscle ([1]; 0 min post injection): 0.23 ± 0.04 % ID/g
Biodistribution in rats: Spleen ([1]; 0 min post injection): 1.84 ± 0.49 % ID/g
Biodistribution in rats: Submaxillary glands ([1]; 0 min post injection): 1.25 ± 0.47 % ID/g
Biodistribution in rats: Adrenal glands ([1]; 2 min post injection): 2.87 ± 1.00 % ID/g
Biodistribution in rats: Blood ([1]; 2 min post injection): 0.11 ± 0.01 % ID/g
Biodistribution in rats: Brain ([1]; 2 min post injection): 0.03 ± 0.00 % ID/g
Biodistribution in rats: Heart ([1]; 2 min post injection): 3.42 ± 0.19 % ID/g
Biodistribution in rats: Intestine ([1]; 2 min post injection): 7.42 ± 1.03 % ID/g
Biodistribution in rats: Kidneys ([1]; 2 min post injection): 11.57 ± 2.37 % ID/g
Biodistribution in rats: Liver ([1]; 2 min post injection): 1.72 ± 0.26 % ID/g
Biodistribution in rats: Lungs ([1]; 2 min post injection): 1.01 ± 0.49 % ID/g
Biodistribution in rats: Muscle ([1]; 2 min post injection): 0.23 ± 0.01 % ID/g
Biodistribution in rats: Spleen ([1]; 2 min post injection): 2.00 ± 0.07 % ID/g
Biodistribution in rats: Submaxillary glands ([1]; 2 min post injection): 1.27 ± 0.05 % ID/g
Biodistribution in rats: Adrenal glands ([1]; 10 min post injection): 2.30 ± 0.73 % ID/g
Biodistribution in rats: Blood ([1]; 10 min post injection): 0.03 ± 0.00 % ID/g
Biodistribution in rats: Brain ([1]; 10 min post injection): 0.02 ± 0.00 % ID/g
Biodistribution in rats: Heart ([1]; 10 min post injection): 3.65 ± 0.56 % ID/g
Biodistribution in rats: Intestine ([1]; 10 min post injection): 12.11 ± 2.92 % ID/g
Biodistribution in rats: Kidneys ([1]; 10 min post injection): 6.74 ± 0.63 % ID/g
Biodistribution in rats: Liver ([1]; 10 min post injection): 1.43 ± 0.47 % ID/g
Biodistribution in rats: Lungs ([1]; 10 min post injection): 0.77 ± 0.10 % ID/g
Biodistribution in rats: Muscle ([1]; 10 min post injection): 0.23 ± 0.07 % ID/g
Biodistribution in rats: Spleen ([1]; 10 min post injection): 1.28 ± 0.12 % ID/g
Biodistribution in rats: Submaxillary glands ([1]; 10 min post injection): 1.42 ± 0.24 % ID/g
Biodistribution in rats: Adrenal glands ([1]; 20 min post injection): 2.69 ± 0.37 % ID/g
Biodistribution in rats: Blood ([1]; 20 min post injection): 0.02 ± 0.01 % ID/g
Biodistribution in rats: Brain ([1]; 20 min post injection): 0.02 ± 0.01 % ID/g
Biodistribution in rats: Heart ([1]; 20 min post injection): 3.32 ± 0.18 % ID/g
Biodistribution in rats: Intestine ([1]; 20 min post injection): 13.03 ± 3.19 % ID/g
Biodistribution in rats: Kidneys ([1]; 20 min post injection): 6.12 ± 0.11 % ID/g
Biodistribution in rats: Liver ([1]; 20 min post injection): 0.87 ± 0.52 % ID/g
Biodistribution in rats: Lungs ([1]; 20 min post injection): 0.84 ± 0.06 % ID/g
Biodistribution in rats: Muscle ([1]; 20 min post injection): 0.13 ± 0.02 % ID/g
Biodistribution in rats: Spleen ([1]; 20 min post injection): 0.92 ± 0.10 % ID/g
Biodistribution in rats: Submaxillary glands ([1]; 20 min post injection): 1.32 ± 0.21 % ID/g
Biodistribution in rats: Adrenal glands ([1]; 30 min post injection): 2.94 ± 0.18 % ID/g
Biodistribution in rats: Blood ([1]; 30 min post injection): 0.02 ± 0.00 % ID/g
Biodistribution in rats: Brain ([1]; 30 min post injection): 0.02 ± 0.02 % ID/g
Biodistribution in rats: Heart ([1]; 30 min post injection): 3.27 ± 0.36 % ID/g
Biodistribution in rats: Intestine ([1]; 30 min post injection): 13.41 ± 4.62 % ID/g
Biodistribution in rats: Kidneys ([1]; 30 min post injection): 5.67 ± 0.39 % ID/g
Biodistribution in rats: Liver ([1]; 30 min post injection): 0.42 ± 0.01 % ID/g
Biodistribution in rats: Lungs ([1]; 30 min post injection): 0.69 ± 0.12 % ID/g
Biodistribution in rats: Muscle ([1]; 30 min post injection): 0.24 ± 0.08 % ID/g
Biodistribution in rats: Spleen ([1]; 30 min post injection): 0.95 ± 0.02 % ID/g
Biodistribution in rats: Submaxillary glands ([1]; 30 min post injection): 1.49 ± 0.22 % ID/g
Biodistribution in rats: Adrenal glands ([1]; 60 min post injection): 2.17 ± 0.35 % ID/g
Biodistribution in rats: Blood ([1]; 60 min post injection): 0.01 ± 0.00 % ID/g
Biodistribution in rats: Brain ([1]; 60 min post injection): 0.01 ± 0.00 % ID/g
Biodistribution in rats: Heart ([1]; 60 min post injection): 3.27 ± 0.62 % ID/g
Biodistribution in rats: Intestine ([1]; 60 min post injection): 4.39 ± 2.86 % ID/g
Biodistribution in rats: Kidneys ([1]; 60 min post injection): 4.24 ± 0.53 % ID/g
Biodistribution in rats: Liver ([1]; 60 min post injection): 0.16 ± 0.05 % ID/g
Biodistribution in rats: Lungs ([1]; 60 min post injection): 0.34 ± 0.11 % ID/g
Biodistribution in rats: Muscle ([1]; 60 min post injection): 0.17 ± 0.01 % ID/g
Biodistribution in rats: Spleen ([1]; 60 min post injection): 0.42 ± 0.11 % ID/g
Biodistribution in rats: Submaxillary glands ([1]; 60 min post injection): 1.29 ± 0.28 % ID/g
Biodistribution in rats: Adrenal glands ([1]; 120 min post injection): 2.53 ± 0.27 % ID/g
Biodistribution in rats: Blood ([1]; 120 min post injection): 0.01 ± 0.00 % ID/g
Biodistribution in rats: Brain ([1]; 120 min post injection): 0.01 ± 0.00 % ID/g
Biodistribution in rats: Heart ([1]; 120 min post injection): 3.00 ± 0.42 % ID/g
Biodistribution in rats: Intestine ([1]; 120 min post injection): 7.03 ± 2.61 % ID/g
Biodistribution in rats: Kidneys ([1]; 120 min post injection): 3.48 ± 0.61 % ID/g
Biodistribution in rats: Liver ([1]; 120 min post injection): 0.12 ± 0.03 % ID/g
Biodistribution in rats: Lungs ([1]; 120 min post injection): 0.27 ± 0.05 % ID/g
Biodistribution in rats: Muscle ([1]; 120 min post injection): 0.36 ± 0.15 % ID/g
Biodistribution in rats: Spleen ([1]; 120 min post injection): 0.21 ± 0.03 % ID/g
Biodistribution in rats: Submaxillary glands ([1]; 120 min post injection): 1.59 ± 0.19 % ID/g
Log k′ (partition ratio) [2]: 3.82
Stability [3]: Stable
SMILES: CCOCCN(CCOCC)C1=[S][99Tc+]2(#[N])([S]1)[P](CCCOC)(CCCOC)CCN(CCOC)CC[P]2(CCCOC)CCCOC [[^99mTc(N) (PNP3) (DBODC)]^+]
